Test results from US20250082651A1, “GANAXOLONE FOR USE IN TREATING GENETIC EPILEPTIC DISORDERS” (Marinus Pharmaceuticals, Inc., priority 2017, published 2025).

Test: Plasma concentrations in paediatric patients after oral dosing
Format: in vivo, human
Conditions: for Plasma concentrations: oral with food, 1 to 13 year old epilepsy patients
[1] = oral suspension formulation, 3 to 18 mg/kg TID, patients aged 4 to 41 months

Structure (SMILES): CC(=O)[C@H]1CC[C@H]2[C@@H]3CC[C@H]4C[C@](C)(O)CC[C@]4(C)[C@H]3CC[C@]12C [Ganaxolone, 3α-hydroxy-3β-methyl-5α-pregnan-20-one]
- Plasma concentrations (1 mg/kg TID): up to 5.78 ng/mL
- Trough concentrations (12 mg/kg TID, humans about 0.6 to about 7 years old): at least 38.5±37.4 ng/mL
- Plasma concentrations (12 mg/kg TID): 10.3 to 16.1 ng/mL
- concentration at 4 weeks (human, plasma, oral, β-cyclodextrin formulation with food, 6 mg/kg BID to 12 mg/kg TID, 5-15 year old, read-out: Plasma concentrations at week 4): ≤ 22.1 ng/mL
- concentration at 8 weeks (human, plasma, oral, β-cyclodextrin formulation with food, 6 mg/kg BID to 12 mg/kg TID, 5-15 year old, read-out: Plasma concentrations at week 8): 5.7 to 43.7 ng/mL
- Cmax [1]: about 123 ng/mL
- Trough concentration [1]: about 23 ng/mL
